Assay results from article PMC7031696 (Cell chemical biology, 2019).
pIC50: −log10 of the molar value. “Also recorded” adds a separate entry of the source. Read-outs that look alike come from different tables or passages of the source.

What was measured:
[1] = test system: Plasmodium falciparum 3D7-A10 parasites; assay: Stage specificity assay (8-h exposure of synchronized stages, IC50^8h); type: cell-based; conditions: for pIC50: Plasmodium falciparum
[2] = test system: asynchronous 3D7-A10 parasite cultures; assay: Standard 72-h exposure asexual blood stage susceptibility assay (IC50^72h); type: cell-based, Plasmodium falciparum; conditions: Plasmodium falciparum, 3D7, 72 h, read-out: Overall (72hr assay) Mean IC50 (IC50^72h)
[3] = test system: 3D7-MR4 trophozoite parasite-infected RBCs; assay: Metabolomic profiling (hydrophilic metabolite changes, UHPLC-MS); type: cell-based, Plasmodium falciparum

SMILES: CCCCN(CCCC)CC(O)c1cc(Cl)cc2c1-c1ccc(Cl)cc1/C2=C/c1ccc(Cl)cc1 (centres unmarked) [Lumefantrine, reference compound]
- Ratio lowest IC50 8hr/IC50 72hr ([1]; 3D7-A10): 11.6
- pIC50 ([1]; 3D7, read-out: Early rings Mean IC50 (IC50^8h), 8-h exposure 0–8 hr, 3D7-A10, survival at 60 h): 7.81
- pIC50 ([1]; 3D7, read-out: Early trophozoites Mean IC50 (IC50^8h), 8-h exposure 16–24 hr, 3D7-A10, survival at 60 h): 7.71
- pIC50 ([1]; 3D7, read-out: IC50^8h values, text summary of Table S1): > 6.52
- pIC50 ([1]; 3D7, read-out: Late rings Mean IC50 (IC50^8h), 8-h exposure 8–16 hr, 3D7-A10, survival at 60 h): 7.80
- pIC50 ([1]; 3D7, read-out: Late trophozoites Mean IC50 (IC50^8h), 8-h exposure 24–32 hr, 3D7-A10, survival at 60 h): 7.65
- pIC50 ([1]; 3D7, read-out: Schizonts Mean IC50 (IC50^8h), 8-h exposure 32–40 hr, 3D7-A10, survival at 60 h): 7.09
- Stage of peak activity (Figure 6) ([1]; period when the parasite was most susceptible (lowest IC50^8h)): ring and trophozoite stages; also recorded: both rings and trophozoites
- pIC50 [2]: 8.89
- peptide levels (hemoglobin catabolism signature) ([3]; 10 × IC50^72h, 2.5 hr, trophozoites): minor peptide increases
- Log2(fold changes) 3-phosphoglycerate ([3]; metabolite 3-phosphoglycerate, log2 fold change): 0.2561
- Log2(fold changes) 4-Pyridoxic acid ([3]; metabolite 4-Pyridoxic acid, log2 fold change): 0.0070
- Log2(fold changes) 4-aminobutyrate ([3]; metabolite 4-aminobutyrate, log2 fold change): -0.1610
- Log2(fold changes) 4-phosphopantetheine ([3]; metabolite 4-phosphopantetheine, log2 fold change): 0.0000
- Log2(fold changes) 4-phosphopantothenate ([3]; metabolite 4-phosphopantothenate, log2 fold change): 0.0324
- Log2(fold changes) 5-aminopentanoic acid ([3]; metabolite 5-aminopentanoic acid, log2 fold change): 0.0000
- Log2(fold changes) 5-methyl-THF ([3]; metabolite 5-methyl-THF, log2 fold change): 0.0000
- Log2(fold changes) 5-phosphoribosyl-1-pyrophosphate ([3]; metabolite 5-phosphoribosyl-1-pyrophosphate, log2 fold change): 0.0000
- Log2(fold changes) 6-phospho-D-gluconate ([3]; metabolite 6-phospho-D-gluconate, log2 fold change): -0.0221
- Log2(fold change) HVDD ([3]; metabolite HVDD): 0.0000
- Log2(fold change) Hydroxyisocaproic acid ([3]; metabolite Hydroxyisocaproic acid): 0.0000
- Log2(fold change) IDP ([3]; metabolite IDP): 0.0726
- Log2(fold change) IMP ([3]; metabolite IMP): 0.0056
- Log2(fold change) Inositol ([3]; metabolite Inositol): 0.0000
- Log2(fold change) Isopentyl-PP ([3]; metabolite Isopentyl-PP): 0.0000
- Log2(fold change) L-arginino-succinate ([3]; metabolite L-arginino-succinate): -0.9519
- Log2(fold change) LD ([3]; metabolite LD): -0.1057
- Log2(fold change) Myristoyl/tetradecanoyl-CoA ([3]; metabolite Myristoyl/tetradecanoyl-CoA): 0.0333
- Log2(fold change) N-Acetyl-L-alanine ([3]; metabolite N-Acetyl-L-alanine): -0.2647
- Log2(fold change) N-acetyl-L-ornithine ([3]; metabolite N-acetyl-L-ornithine): -0.6357
- Log2(fold change) N-acetyl-glucosamine-1/6-phosphate ([3]; metabolite N-acetyl-glucosamine-1/6-phosphate): 0.0000
- Log2(fold change) N-acetyl-glutamate ([3]; metabolite N-acetyl-glutamate): -0.0437
- Log2(fold change) N-acetyl-glutamine ([3]; metabolite N-acetyl-glutamine): 0.0000
- Log2(fold change) N-carbamoyl-L-aspartate ([3]; metabolite N-carbamoyl-L-aspartate): -0.1460
- Log2(fold change) NAD+ ([3]; metabolite NAD+): -0.0402
- Log2(fold change) NADH ([3]; metabolite NADH): 0.0000
- Log2(fold change) NADP+ ([3]; metabolite NADP+): -0.0151
- Log2(fold change) NADPH ([3]; metabolite NADPH): -0.2368
- Log2(fold change) O-acetyl-L-serine ([3]; metabolite O-acetyl-L-serine): 0.0000
- Log2(fold change) Octoluse 8/1P ([3]; metabolite Octoluse 8/1P): -0.0627
- Log2(fold change) Octoluse Bisphosphate ([3]; metabolite Octoluse Bisphosphate): -0.2224
- Log2(fold change) PD ([3]; metabolite PD): -0.6715
- Log2(fold change) PE ([3]; metabolite PE): -0.8261
- Log2(fold change) PEE ([3]; metabolite PEE): -0.8026
- Log2(fold change) PEEK ([3]; metabolite PEEK): -1.0553
- Log2(fold change) PVNF ([3]; metabolite PVNF): -1.0323
- Log2(fold change) Pyroglutamic acid ([3]; metabolite Pyroglutamic acid): -0.2992
- Log2(fold change) Pyrophosphate ([3]; metabolite Pyrophosphate): 0.0000
- Log2(fold change) Ribose-5-phosphate ([3]; metabolite Ribose-5-phosphate): -0.3541
- Log2(fold change) S-adenosyl-L-homocysteine ([3]; metabolite S-adenosyl-L-homocysteine): -0.4489
- Log2(fold change) S-adenosyl-L-methioninamine ([3]; metabolite S-adenosyl-L-methioninamine): 0.0000
- Log2(fold change) S-adenosyl-L-methionine ([3]; metabolite S-adenosyl-L-methionine): 0.0000
- Log2(fold change) S-methyl-5'-thioadenosine ([3]; metabolite S-methyl-5'-thioadenosine): 0.0780
- Log2(fold change) SD ([3]; metabolite SD): -0.5378
- Log2(fold change) SDL ([3]; metabolite SDL): -0.2618
- Log2(fold change) SID ([3]; metabolite SID): -0.7176
- Log2(fold change) Sedoheptulose bisphosphate ([3]; metabolite Sedoheptulose bisphosphate): -0.0691
- Log2(fold change) Thiamine pyrophosphate ([3]; metabolite Thiamine pyrophosphate): 0.0528
- Log2(fold changes) UDP-D-glucose ([3]; metabolite UDP-D-glucose, log2 fold change): 0.0221
- Log2(fold changes) UDP-D-glucuronate ([3]; metabolite UDP-D-glucuronate, log2 fold change): 0.0757
- Log2(fold changes) UDP-N-acetyl-glucosamine ([3]; metabolite UDP-N-acetyl-glucosamine, log2 fold change): -0.0029
- Log2(fold changes) UDP ([3]; metabolite UDP, log2 fold change): 0.0413
- Log2(fold changes) UMP ([3]; metabolite UMP, log2 fold change): 0.0984
- Log2(fold changes) UTP ([3]; metabolite UTP, log2 fold change): 0.0275
- Log2(fold change) hydroxyphenylpyruvate ([3]; metabolite hydroxyphenylpyruvate): 0.0000
- Log2(fold change) hydroxyproline/Aminolevulinate ([3]; metabolite hydroxyproline/Aminolevulinate): -0.1667
- Log2(fold change) hypoxanthine ([3]; metabolite hypoxanthine): 0.0000
- Log2(fold change) indole ([3]; metabolite indole): 0.0000
- Log2(fold change) inosine ([3]; metabolite inosine): -0.7307
- Log2(fold change) isoleucine ([3]; metabolite isoleucine): -0.3373
- Log2(fold change) lactate ([3]; metabolite lactate): -0.7427
- Log2(fold change) leucine ([3]; metabolite leucine): -0.5467
- Log2(fold change) lysine ([3]; metabolite lysine): -0.9287
- Log2(fold change) malate ([3]; metabolite malate): -0.2859
- Log2(fold change) maleic acid ([3]; metabolite maleic acid): -0.2558
- Log2(fold change) methionine ([3]; metabolite methionine): -0.5836
- Log2(fold change) myo-inositol ([3]; metabolite myo-inositol): -1.2017
- Log2(fold change) nicotinamide mononucleotide ([3]; metabolite nicotinamide mononucleotide): -0.1717
- Log2(fold change) nicotinate ([3]; metabolite nicotinate): -0.0538
- Log2(fold change) ornithine ([3]; metabolite ornithine): 0.0000
- Log2(fold change) orotate ([3]; metabolite orotate): -0.5668
- Log2(fold change) orotidine-5'-phosphate ([3]; metabolite orotidine-5'-phosphate): -1.0458
- Log2(fold change) oxaloacetate ([3]; metabolite oxaloacetate): 0.0000
- Log2(fold change) p-aminobenzoate ([3]; metabolite p-aminobenzoate): 0.0000
- Log2(fold change) p-hydroxybenzoate ([3]; metabolite p-hydroxybenzoate): 0.0000
- Log2(fold change) pantothenate ([3]; metabolite pantothenate): 0.0000
- Log2(fold change) phenylalanine ([3]; metabolite phenylalanine): -0.5609
- Log2(fold change) phenylpyruvate ([3]; metabolite phenylpyruvate): 0.0000
- Log2(fold change) phosphoenolpyruvate ([3]; metabolite phosphoenolpyruvate): 0.3731
- Log2(fold change) prephenate ([3]; metabolite prephenate): 0.0000
- Log2(fold change) proline ([3]; metabolite proline): -0.4274
- Log2(fold change) pyridoxine ([3]; metabolite pyridoxine): -0.6579
- Log2(fold change) pyruvate ([3]; metabolite pyruvate): -0.6264
- Log2(fold change) riboflavin ([3]; metabolite riboflavin): -0.1882
- Log2(fold change) ribose ([3]; metabolite ribose): -0.6495
- Log2(fold change) ribose-phosphate ([3]; metabolite ribose-phosphate): -0.3829
- Log2(fold change) ribulose-5-phosphate ([3]; metabolite ribulose-5-phosphate): -0.2140
- Log2(fold change) serine ([3]; metabolite serine): -0.3504
- Log2(fold change) sn-glycerol-3-phosphate ([3]; metabolite sn-glycerol-3-phosphate): 0.0117
- Log2(fold change) succinate/Methylmalonic acid ([3]; metabolite succinate/Methylmalonic acid): 0.0257
- Log2(fold change) succinyl-CoA/methylmalonyl-CoA ([3]; metabolite succinyl-CoA/methylmalonyl-CoA): 0.0000
- Log2(fold change) taurine ([3]; metabolite taurine): -0.1171
- Log2(fold change) thiamine ([3]; metabolite thiamine): -0.2236
- Log2(fold change) threonine/homoserine ([3]; metabolite threonine/homoserine): -0.3606
- Log2(fold change) thymidine ([3]; metabolite thymidine): 0.0000
- Log2(fold changes) thymine ([3]; metabolite thymine, log2 fold change): 0.0000
- Log2(fold changes) trehalose-6-Phosphate ([3]; metabolite trehalose-6-Phosphate, log2 fold change): 0.0000
- Log2(fold changes) tryptophan ([3]; metabolite tryptophan, log2 fold change): -0.3412
- Log2(fold changes) tyrosine ([3]; metabolite tyrosine, log2 fold change): -0.2808
- Log2(fold changes) uridine ([3]; metabolite uridine, log2 fold change): 0.0000
